From US20080200372A1, “Glycosaminoglycan Peptides Derived From Connective Tissues And Use Thereof In The Prevention Of Arthritis And Other Degenerative Medical Conditions” (Institute of Nutraceutical Research Pty Ltd., priority 2004, published 2008)
“Also recorded” adds a separate entry of the source.

Assays:
[1] = system: haemorrhagic stomach lesions produced by ibuprofen in rats with CIA; experiment: Gastroprotective activity in the rat CIA model against haemorrhagic stomach lesions produced by ibuprofen; type: in vivo
Method: FIG. 18 provides a table (Table 1) of the results for testing gastroprotective activity of Calcium Peptacan in the Rat CIA Arthritis Model against haemorrhagic stomach lesions produced by oral administration of the non-steroidal anti-inflammatory drug, Ibufrofen (50 mg/kg) on day 20.
As discussed earlier the chronic use of NSAIDs by OA and RA patients is frequently associated with serious side effects in the gastrointestinal tract particularly with respect the induction of gastric bleeding. This effect was confirmed in an animal model by administering 50 mg/kg of the NSAID, ibuprofen, to rats in which CIA had been ongoing for 20 days [see FIG. 18—Table 1].

[2] = system: citrated human plasma; experiment: In vitro anticoagulant activity, activated partial thromboplastin time (aPTT); type: biochemical
Method: Pharmaceutical quality chondroitin sulfate were obtained from Bioiberica, Barcelona, Spain (ChS#1) and Sigma Chemical Co St Louis, Mo., USA (ChS#2). Calcium peptacan (CaP), and GAG-peptide (GAG-P), prepared as described herein, were evaluated for their anticoagulant activities using a commercial aPTT reagent (Actin FSL activated PTT reagent, Dade-Behring Margurg GmbH, Marburg, Germany) and a standard human plasma: (Ci-Trol Coagulation Control level 2, Dade-Behring Margurg GmbH, Marburg, Germany) according to the protocol supplied by the manufacturer. Stock solutions of the test preparations were dissolved in 0.025M calcium chloride and serially diluted in this buffer to correspond to the concentrations of 0-1.25 mg/mL. The aPTT times were determined by the addition of these solutions to a mixture of the Actin FSL reagent and control plasma held at 37° C. in cuvettes of a fibrin-timer (Dade-Behring Margurg GmbH, Marburg, Germany). This instrument quantitated the time in seconds for clot formation. All samples were assayed in duplicate and the mean values plotted against concentration using a semi-log scale.

[3] = system: rat collagen induced arthritis (CIA) model; experiment: Rat type II collagen induced arthritis (CIA) model, toleragenic protocol (7 days oral pre-administration); type: in vivo; settings: for activity as toleragens in the rat CIA model: comparative study with CaP, FIG. 8
Method: In another example of the present invention, the tolerogenic protocol of evaluation of the pharmaceutical of the invention comprises administering the pharmaceutical composition to the animals prior to inducing arthritis by injection of the arthritogen. The pharmaceutical composition is administered for a period of time suitable to tolerize the animal. In one example the pharmaceutical composition is administered for 1 to 21 days prior to administration of the arthritogen. In one preferred example the pharmaceutical composition is administered for 1, 7, 10, 15 or 20 days prior to administration of the arthritogen. According to the toleragenic protocol for studying the activity of the pharmaceutical of the present invention, it is preferred that administration of the pharmaceutical composition ceases at the time that the arthritogen is administered.
Female Wistar rats (160-180 gm) were inoculated with 250 μg of the arthritogen, bovine tracheal collagen type-II dissolved in dilute acetic acid (0.01M) and applied as 6 divided injections into their tail base on day 0. The body weight of animals, together with their tail and paw swelling, were determined every 48 h, the latter parameters being determined using callipers and results expressed in millimetres (mm). Arthritis development was also assessed from day 11 onwards using a macroscopic scoring scale whereby rear paw, fore paw, and tail swelling were scored on a scale 0-4+. An overall arthritis score (0-4+) was also determined on the basis of overall inflammation and other signs of disease activity, e.g. piloerection, diminished mobility, poor grooming etc as described previously [Creamer M. et al. Collagen-induced arthritis in rats. J Immunology, 149:1045-1053, 1992]. […]

[4] = system: rat collagen induced arthritis (CIA) model; experiment: Rat type II collagen induced arthritis (CIA) model, prophylactic protocol (15 days oral administration); type: in vivo; settings: 200 mg/kg oral, 15 days administration, measured on day 15 (FIG. 8, FIG. 14)
Method: According to the prophylactic protocol of evaluation, the pharmaceutical composition of the present invention is administered to the animals from the time the animals are injected with arthritogen and for a number of days thereafter. In one example the pharmaceutical composition is administered to the animal for between 1 and 15 days after administration of the arthritogen. In alternate examples of the invention the pharmaceutical composition is administered for example for 7, 10, 15 or 20 days after administration of the arthritogen. The scope of the present invention extends to the administration of the pharmaceutical composition for an appropriate period of time after administration of the arthritogen that is suitable to effect prophylaxis to prevent the onset of symptoms of a harmful immune response to the arthritogen. […] The body weight of animals, together with their tail and paw swelling, were determined every 48 h, the latter parameters being determined using callipers and results expressed in millimetres (mm). Arthritis development was also assessed from day 11 onwards using a macroscopic scoring scale whereby rear paw, fore paw, and tail swelling were scored on a scale 0-4+. […]

[5] = system: type II collagen (CII) arthritis (CIA) in mice; settings: cited from earlier work

For `O=C(O)CC([S-])C(=O)O.[Au+]` (stereo not drawn) [aurothiomalate], the gastro protective effectiveness ([1]; ibuprofen 50 mg/kg on day 20 of CIA, dose of test substance not given) was “only marginally effective”.
In the case of `CC(C)Cc1ccc(C(C)C(=O)O)cc1` (stereo not drawn) [ibuprofen], the “induction of gastric bleeding” value ([1]; 50 mg/kg to rats in which CIA had been ongoing for 20 days) is reported as “confirmed”.
With chondroitin sulfate [ChS #1] the “anticoagulant effect (aPTT)” value ([2]; citrated human plasma, 0-1.25 mg/mL (FIG. 17)) was “strongest anticoagulant effect”.
With `Cl.N[C@H]1C(O)O[C@H](CO)[C@@H](O)[C@@H]1O` (stereo partly drawn) [GmHCl, Glucosamine Hydrochloride] the “activity as toleragens in the rat CIA model” value [3] was “inactive as toleragens” and the “prophylactic effects on arthritis development (rear paw swelling, front paw inflammation, arthritis scores)” value [4] was “CaP was the only preparation that demonstrated anti-arthritic activity”.
In the case of `N[C@H]1C(O)O[C@H](CO)[C@@H](O)[C@@H]1O.O=S(=O)(O)O` (stereo partly drawn) [GmSO4, Glucosamine Sulfate], the “activity as toleragens in the rat CIA model” value [3] is reported as “inactive as toleragens” and the “prophylactic effects on arthritis development (rear paw swelling, front paw inflammation, arthritis scores)” value [4] is reported as “CaP was the only preparation that demonstrated anti-arthritic activity”.
In the case of chondroitin sulfate [ChS], the “toleragenic effects on arthritis development (rear paw swelling, front paw inflammation, arthritis scores)” value ([3]; 20 mg/kg oral, 7 days pre-administration, measured on day 15 (FIG. 7, FIG. 9)) is given as “inactive as a toleragen; also recorded: no activity”, the “concentration range over which anti-coagulant activity was exhibited” value ([2]; aPTT (FIG. 17)) is given as 0.4 to 1.2 mg/mL and the “delayed-type hypersensitivity (DTH) reaction” value ([5]; at any dose (100, 300, 1000 mg/kg), mice) is given as “no effect”. The “severity of the disease (hind paw oedema, synovitis, destruction of the articular cartilage)” value ([5]; only at the highest dose, 1000 mg/kg oral, mice) was “significantly reduced” and the incidence of arthritis ([5]; oral doses of 100, 300 and 1000 mg/kg for 14 days prior to inducing CIA in mice) was “failed to prevent the incidence of arthritis”.
